Source: patent US20260130933A1, “PHARMACEUTICAL COMPOSITION FOR PREVENTION OR TREATMENT OF NEPHROPATHY AND/OR DIABETES MELLITUS, COMPRISING ENAVOGLIFLOZIN” (DAEWOONG PHARMACEUTICAL CO., LTD., priority 2022, published 2026)

Assay: Example 3: phase 3 trial, enavogliflozin 0.3 mg vs dapagliflozin 10 mg once a day for 24 weeks added to metformin and gemigliptin in patients with type 2 diabetes (same endpoints, rescue drug)
Assay type: in vivo, human
Procedure: 1) when Metformin (≥1,000 mg/Day) was Administered at a Constant Dose for at Least 8 Weeks Prior to Pre-Visit (Pre-Screening) • Metformin (≥1,000 mg/day) and gemigliptin (50 mg/day) were co-administered during the 8-week stabilization period. […] 4) when Metformin (≥1,000 mg/Day) and Gemigliptin (50 mg/Day) were Co-Administered at Constant Doses for at Least 8 Weeks Prior to Pre-Visit (Prescreening) • Without a separate stabilization period, Pre-visit (pre-screening) was Visit 1 (screening).
Subjects who met the inclusion/exclusion criteria continued to receive metformin and gemigliptin while receiving a placebo of the clinical trial drug in a single-blind (subject-blinded) state for a 2-week run-in period.
Here, the randomized subjects were stratified according to the administration therapy (co-administration with two or less agents (one or two agents) or three or more agents) of a conventional hypoglycemic agent (before washout of another hypoglycemic agent) within 24 weeks prior to obtaining written informed consent and by an HbA1c value (<8% or ≥8%) at Visit 1 (screening) measured in the central laboratory.
The randomized subjects were administered two tablets of the clinical trial drug corresponding to each administration group once a day, and then visited the institution at weeks 6, 12, 18, and 24 during the 24-week administration period to conduct efficacy and safety assessments. In addition, during the clinical trial period, they were instructed to exercise regularly and control their diet without changing their daily life patterns.
• 1) Change in HbA1c at week 24 after administration of clinical trial drug compared to Visit 2 (randomization)
• 1) Change in HbA1c at each time point of weeks 6, 12, and 18 after administration of clinical trial drug compared to Visit 2 (randomization) • 2) Change in FPG at each time point of weeks 6, 12, 18, and 24 after administration of clinical trial drug compared to Visit 2 (randomization) • 3) Proportion of subjects achieving HbA1c<7% at each time point of weeks 6, 12, 18, and 24 after administration of clinical trial drug • 4) Proportion of subjects achieving HbA1c<6.5% at each time point of weeks 6, 12, 18, and 24 after administration of clinical trial drug • 5) Proportion of subjects achieving therapeutic response (HbA1c change (HbA1c at Visit 2—HbA1c at each evaluation time point)>0.5% or HbA1c<7% at each evaluation time point compared to Visit 2 (randomization)) at each time point of weeks 6, 12, 18, and 24 after administration of clinical trial drug • 6) Proportion of subjects achieving therapeutic response (HbA1c change (HbA1c at Visit 2—HbA1c at each evaluation time point)>0.7% or HbA1c<7% at each evaluation time point compared to Visit 2 (randomization)) at each time point of weeks 6, 12, 18, and 24 after administration of clinical trial drug • 7) Proportion of subjects achieving therapeutic response (HbA1c change (HbA1c at Visit 2—HbA1c at each evaluation time point)>1% or HbA1c<7% at each evaluation time point compared to Visit 2 (randomization)) at each time point of weeks 6, 12, 18, and 24 after administration of clinical trial drug

[1] = week 6, per-protocol set, enavogliflozin 0.3 mg, dapagliflozin 10 mg
[2] = week 12, modified per-protocol set 1, enavogliflozin 0.3 mg vs dapagliflozin 10 mg
[3] = week 12, modified per-protocol set 1, enavogliflozin 0.3 mg, dapagliflozin 10 mg
[4] = week 12, modified per-protocol set 2

## OC[C@H]1O[C@@H](c2cc(Cc3ccc(C4CC4)cc3)c(Cl)c3c2CCO3)[C@H](O)[C@@H](O)[C@@H]1O [Enavogliflozin, (2S,3R,4R,5S,6R)-2-(7-chloro-6 (4-cyclopropylbenzyl)-2,3-dihydrobenzofuran-4-yl)-6-(hydroxymethyl)tetrahydro-2H-pyran-3,4,5-triol]
[1]
  Fasting C-peptide, Mean: 0.67 ng/mL
  Fasting C-peptide, Median: 0.63 ng/mL
  HbA1c, Mean: 7.06%
  HbA1c, Median: 6.94%
  Subjects achieving HbA1c target of <6.5%, (%): 11.21%
  Subjects achieving HbA1c target of <7%, %: 56.03%
  body weight, Median: 66.80 kg
Week 6, per-protocol set, response 1 = HbA1c change >0.5% or HbA1c <7%, enavogliflozin 0.3 mg, dapagliflozin 10 mg
  Subjects achieving therapeutic glycemic response 1, %: 87.07%
Week 6, per-protocol set, response 2 = HbA1c change >0.7% or HbA1c <7%, enavogliflozin 0.3 mg, dapagliflozin 10 mg
  Subjects achieving therapeutic glycemic response 2, %: 78.45%
Week 6, per-protocol set, response 3 = HbA1c change >1% or HbA1c <7%, enavogliflozin 0.3 mg, dapagliflozin 10 mg
  Subjects achieving therapeutic glycemic response 3, %: 70.69%
Week 12
  FPG change from baseline, LS mean (SE): −27.17(1.54) mg/dL
  HDL-C change from baseline, LS mean (SE): 3.18(0.62) mg/dL
  HOMA-β change from baseline, LS mean (SE): 7.78(1.94)
  HbA1c change from baseline, LS mean (SE): −0.87(0.04) % p
  LDL-C change from baseline, LS mean (SE): 2.95(1.79) mg/dL
  UACR change from baseline, LS mean (SE): −15.12(4.60) g/kg
  UGCR change from baseline, LS mean (SE): 58.21(2.07) mg/mg
  adiponectin change from baseline, LS mean (SE): 0.89(0.34) μg/mL
  body weight change from baseline, LS mean (SE): −2.72(0.20) kg
  diastolic blood pressure change from baseline, LS mean (SE): −4.30(0.69) mmHg
  fasting C-peptide change from baseline, LS mean (SE): −0.09(0.02) ng/ml
  leptin change from baseline, LS mean (SE): −1.97(0.48) ng/ml
  systolic blood pressure change from baseline, LS mean (SE): −6.43(0.88) mmHg
  total cholesterol change from baseline, LS mean (SE): 6.80(2.04) mg/dL
  triglyceride change from baseline, LS mean (SE): −3.23(5.25) mg/dL
Week 12, vs dapagliflozin
  FPG change from baseline, LS mean difference: -2.75 mg/dL
  HDL-C change from baseline, LS mean difference: 0.34 mg/dL
  HOMA-IR change from baseline, LS mean difference: −0.06
  HOMA-β change from baseline, LS mean difference: 2.55
  HbA1c change from baseline, LS mean difference: −0.04 % p
  LDL-C change from baseline, LS mean difference: 0.24 mg/dL
  Odds ratio for achieving HbA1c<6.5%: 1.44
  Odds ratio for achieving HbA1c<7%: 1.20
  Odds ratio, therapeutic response (HbA1c change >0.5% or HbA1c<7%): 1.09
  Odds ratio, therapeutic response (HbA1c change >0.7% or HbA1c<7%): 1.30
  Odds ratio, therapeutic response (HbA1c change >1% or HbA1c<7%): 1.31
  UACR change from baseline, LS mean difference: -3.35 g/kg
  UGCR change from baseline, LS mean difference: 13.37 mg/mg
  adiponectin change from baseline, LS mean difference: 0.19 µg/mL
  body weight change from baseline, LS mean difference: -0.01 kg
  diastolic blood pressure change from baseline, LS mean difference: −2.04 mmHg
  fasting C-peptide change from baseline, LS mean difference: -0.02 ng/mL
  leptin change from baseline, LS mean difference: -0.28 ng/mL
  systolic blood pressure change from baseline, LS mean difference: −1.37 mmHg
  total cholesterol change from baseline, LS mean difference: 1.40 mg/dL
  triglyceride change from baseline, LS mean difference: 8.79 mg/dL
[2]
  Change from baseline in HDL-C, ANCOVA LS mean difference: 0.34 mg/dL
  Change from baseline in LDL-C, ANCOVA LS mean difference: 0.24 mg/dL
  Change from baseline in total cholesterol, ANCOVA LS mean difference: 1.40 mg/dL
  Change from baseline in triglycerides, ANCOVA LS mean difference: 8.79 mg/dL
[3]
  Change from baseline in HDL-C, ANCOVA LS mean: 3.18 mg/dL
  Change from baseline in HDL-C, Mean: 3.17 mg/dL
  Change from baseline in HDL-C, Median: 3.00 mg/dL
  Change from baseline in LDL-C, ANCOVA LS mean: 2.95 mg/dL
  Change from baseline in LDL-C, Mean: 3.76 mg/dL
  Change from baseline in LDL-C, Median: 3.00 mg/dL
  Change from baseline in total cholesterol, ANCOVA LS mean: 6.80 mg/dL
  Change from baseline in total cholesterol, Mean: 7.79 mg/dL
  Change from baseline in total cholesterol, Median: 7.00 mg/dL
  Change from baseline in triglycerides, ANCOVA LS mean: -3.23 mg/dL
  Change from baseline in triglycerides, Mean: 0.59 mg/dL
  Change from baseline in triglycerides, Median: -3.00 mg/dL
  Fasting HDL-C, Mean: 49.21 mg/dL
  Fasting HDL-C, Median: 47.50 mg/dL
  Fasting LDL-C, Mean: 75.11 mg/dL
  Fasting LDL-C, Median: 72.00 mg/dL
  Fasting total cholesterol, Mean: 142.09 mg/dL
  Fasting triglycerides, Mean: 118.98 mg/dL
  Fasting triglycerides, Median: 98.50 mg/dL
  fasting Total cholesterol, Median: 136.00 mg/dL
[4]
  Change from baseline in diastolic blood pressure, ANCOVA LS mean: −4.30 mmHg
  Change from baseline in diastolic blood pressure, LS mean difference (enavogliflozin − dapagliflozin): −2.04 mmHg
